# Experimental data taken from patent US11389427B2, “Compositions and methods of treating cardiac hypertrophy and heart failure” (CASE WESTERN RESERVE UNIVERSITY, priority 2017, dated 2022).
# Assays:
# [1] = tested on: neonatal rat ventricular myocytes (NRVMs); test: Phenylephrine-induced (PE-induced) cardiomyocyte hypertrophy in NRVMs; format: cell-based; parameters: PE-induced cellular hypertrophy (cell size) / PE-induced expression of cellular stress markers (qPCR of Nppa and Nppb): unit of the concentration uncertain
# Procedure: (§1) SR9009 was synthesized and purified in the laboratory of Thomas Burris (Department of Pharmacology and Physiology, St. Louis University, St. Louis, Mo., USA). For in vitro experiments, SR9009 was dissolved in DMSO and administered at […]; GSK4112 (EMD Millipore) was dissolved in DMSO and administered at […] using an equal volume of DMSO as control. For in vivo experiments, SR9009 was dissolved in 5% DMSO/10% Cremaphor EL (Sigma-Aldrich, C5135)/85% PBS in a working solution at 10 mg/ml. Micewere injected at a dose of 100 mg/kg/day given i.p. once daily at zeitgeber time 8 (ZT8). The diluent without SR9009 of the same volume was used as control.
# NRVMs and CFs were isolated from the hearts of 2-day-old Sprague-Dawley rat pups (Charles River Laboratories). The cells were differentially preplated for 1.5 hr. The nonattached cells were collected as NRVM and replated with 48 hr exposure to BrdU to suppress nonmyocytes. The attached cells were passaged 2-3 times to obtain CFs. NRVMs were initially plated in growth medium (DMEM supplemented with 10% FBS, 100 U/ml penicillin-streptomycin, and 2 mM L-glutamine) for 48 hr and maintained in serum-free media thereafter (DMEM supplemented with 1% insulin-transferrin-selenium liquid media supplement [Sigma-Aldrich, 13146], 100 U/ml penicillin-streptomycin). For hypertrophic stimulation, NRVM were incubated with SR9009 or GSK4112 versus DMSO for 24 hr, followed by stimulation with PE (100 μM) for the indicated time. […]
# NRVM were plated on glass coverslips in 6-well dishes at a density of 1×10^5 cells/ml. […] Quantitation of cardiomyocyte cell surface area was performed on anti-actinin-stained cardiomyocytes using fluorescent microscopy and ImagePro software. […]
# (§2) For tissue RNA, a 10-20 mg piece of mouse heart at apex was preserved in RNA Later stabilization reagent (Qiagen) followed by mechanical disruption/homogenization in Trizol (Life Technologies) on a TissueLyser (Qiagen) using stainless steel beads (Qiagen). […] Relative expression was calculated using the ΔΔCt-method with normalization to Ppib (Cyclophilin-B). […]
# [2] = tested on: C57BL/6J mice, TAC pressure overload; test: Pressure overload model, transaortic constriction (TAC, 27 gauge), 6-week followup; format: in vivo; conditions: for Corrected left ventricle mass (LVm): echocardiogram; for Ejection fraction (EF): SR9009 i.p. daily from 1 day after surgery
# Procedure: as §1, with “Micewere injected at a dose of 100 mg/kg/day given i.p. once daily at zeitgeber time 8 (ZT8).” left out
# (§3) All mice were C57BL/6J littermate males aged 9 weeks at the start of the experiment. Mice were anesthetized with ketamine/xylazine, mechanically ventilated (Harvard apparatus), and subjected to thoracotomy. The aortic arch was constricted between the left and right carotid arteries using a 7.0 silk suture and a 27- or 28-gauge needle as previously described (20). Chemicals were obtained from Sigma-Aldrich.
# (§4) For transthoracic echocardiography, mice were anesthetized with 1% inhalational isofluorane and imaged using the Vevo 770 High Resolution Imaging System (Visual Sonics Inc.) and the RMV-707B 30 MHz probe. Measurements were obtained from M-mode sampling, and integrated EKVimages were taken in the LV short axis at the mid-papillary level.
# Short-axis heart sections from the midventricle were fixed in PBS/4% paraformaldehyde and embedded in paraffin. Fibrosis was visualized using Gomori's Trichrome staining kit (Sigma-Aldrich) with quantification of fibrotic area using ImagePro software. TUNEL staining was performed using the CardioTACS In Situ Apoptosis Detection kit (R&D Systems) according to manufacturer's instructions. Cryopreserved sections were used for myocardial capillary staining, which was performed in frozen LV sections using anti-PECAM-1 antibodies (1:200, BD Pharmingen, MEC13.3). The cardiomyocyte cross-sectional area was determined by staining with WGA Alexa 594 (Life Technologies) and analyzed using ImagePro software.
# Given the strong effect of SR9009 in blocking the cellular remodeling in response to neurohormonal stress, we next tested the role of REV-ERBα activation in vivo using the classical pressure overload model. We started daily i.p. injection of SR9009 or Veh 1 day after transaortic constriction (TAC, 27 gauge) surgery and monitored cardiac hypertrophy and function by echocardiogram for 6 weeks. […] These findings were later confirmed by autopsy performed 6 weeks after TAC by heart weight and muscle fiber size analyses using wheat germ agglutinin staining on cryopreserved sections (FIGS. 3, B-E).
# [3] = tested on: C57BL/6J mice, 28-gauge TAC heart failure model; test: Heart failure model, 28-gauge TAC with cross-over, 11-week followup; format: in vivo, mouse
# Procedure: as §1, §3
# as §4, with “level. […]” for “level.”
# [4] = mouse, in vivo
# Procedure: Conscious tail-vein systolic blood pressure was measured using the BP2000 Blood Pressure Analysis System (Visitech Systems Inc.) as recommended by the manufacturer. To allow mice to adapt to the apparatus, we performed daily blood pressure measurements for 1 week prior to beginning experiments.
# SR9009 is a drug given systemically and may potentially affect other systems, such as the vascular tone, although pressure overload itself is considered a relatively specific stress directly on the heart. To exclude the possibility that the improved cardiac function and reduced hypertrophy in vivo is associated with improvement in hemodynamics, we measured blood pressure using tail cuff and found there is no difference in mice receiving 4 weeks of Veh (mean arterial pressure [MAP]=106 mmHg) or SR9009 (MAP=115 mmHg, P=0.24).
# [5] = tested on: cardiac fibroblasts (CFs); test: TGβ1-induced inflammatory response of cultured cardiac fibroblasts (CFs); format: cell-based, rat; conditions: cultured CFs pretreated with Veh or SR9009
# Procedure: NRVMs and CFs were isolated from the hearts of 2-day-old Sprague-Dawley rat pups (Charles River Laboratories). The cells were differentially preplated for 1.5 hr. The nonattached cells were collected as NRVM and replated with 48 hr exposure to BrdU to suppress nonmyocytes. The attached cells were passaged 2-3 times to obtain CFs. NRVMs were initially plated in growth medium (DMEM supplemented with 10% FBS, 100 U/ml penicillin-streptomycin, and 2 mM L-glutamine) for 48 hr and maintained in serum-free media thereafter (DMEM supplemented with 1% insulin-transferrin-selenium liquid media supplement [Sigma-Aldrich, 13146], 100 U/ml penicillin-streptomycin). For hypertrophic stimulation, NRVM were incubated with SR9009 or GSK4112 versus DMSO for 24 hr, followed by stimulation with PE (100 μM) for the indicated time. CFs were cultured in DMEM supplemented with 10% FBS, 100 U/ml penicillin-streptomycin, and 2 mM L-glutamine and stimulated with TGβ1 (eBioscience).
# [6] = tested on: human induced pluripotent stem cell-differentiated cardiomyocytes (iPS-CM); test: Endothelin-1-induced hypertrophic response in human iPS-differentiated cardiomyocytes; format: cell-based; conditions: SR9009 pretreatment, ET-1 (10 nM)
# Procedure: We purchased human induced pluripotent stem cell-differentiated cardiomyocytes from Cellular Dynamics (iCell). We followed manufacturer's protocol and measured NPPB expression 24 hr after ET-1 (10 nM, Sigma-Aldrich) induction.
# as §2, with “(Qiagen). RNA was purified from the aqueous phase using the miRNAeasy kit (Qiagen) following manufacturer's instructions. For cellular samples, total RNA from NRVM was isolated using the High Pure RNA isolation kit (Roche Diagnostics) with on-column DNAase treatment according to manufacturer's directions.” for “(Qiagen).”
# We induced cellular hypertrophic response in human induced pluripotent stem cell-differentiated cardiomyocytes with endothelin-1 (ET-1) and monitored NPPB (BNP) expression with SR9009 or Veh pretreatment.
# [7] = tested on: mouse heart mitochondria; test: Mitochondria number, morphology and respiration in mouse hearts after TAC; format: in vivo; conditions: 10 weeks after TAC, vs Veh
# Procedure: The assay was performed using Seahorse (Agilent) and following the manufacturer's published protocol. Isolated mitochondria (0.5 μg; measured by BCA assay) were loaded per assay.
# Total DNA was extracted from the hearts or NRVMs using the QIAamp DNA Mini Kit (Qiagen, 51304). Mitochondrial DNA content was assessed by qPCR using primers specific for multiple mitochondrial-encoded genes (int-Cox1, mt-Nd2, int-Nd1, and mt-Nd5) and normalized to nuclear DNA content (a specific locus on mouse chromosome 6) using the ΔΔCt method.
# Small pieces of tissue from the LV free wall were fixed by sequential immersion in triple aldehyde-DMSO, ferrocyanide-reduced osmium tetroxide, and acidified uranyl acetate; dehydrated in ascending concentrations of ethanol; passed through propylene oxide; and embedded in Poly/Bed resin (Polysciences Inc., 21844-1). Thin sections were sequentially stained with acidified uranyl acetate, followed by a modification of Sato's triple lead stain, and examined with a JEOL 1200EX electron microscope.
smiles,measurement,setting,value
CCOC(=O)N1CCC(CN(Cc2ccc(Cl)cc2)Cc2ccc([N+](=O)[O-])s2)C1 (stereo not shown) [SR9009],PE-induced expression of cellular stress markers (qPCR of Nppa and Nppb),"[1]; NRVMs pretreated 24 hours, then PE 48 hours, SR9009 at 5 (unit uncertain), GSK4112 at 10 (unit uncertain)",effectively blocked
same,PE-induced cellular hypertrophy (cell size),"[1]; NRVMs pretreated 24 hours, then PE (100 μM) 48 hours, SR9009 at 5 (unit uncertain)",effectively blocked
same,PE repression of Pdk4 expression (RNA-Seq),"[1]; NRVMs, SR9009 given 24 hr prior to PE",ameliorated
same,Toxicity of the SR9009 dose,"[2]; 10 mg/kg/day, daily i.p., mice",no apparent toxicity
same,Corrected left ventricle mass (LVm),[2]; 4 weeks after 27-gauge TAC,111.4 mg
same,Ejection fraction (EF),[2]; 4 weeks after 27-gauge TAC,61.4%
same,Corrected left ventricle mass (LVm),[2]; 6 weeks after 27-gauge TAC,114.8 mg
same,Ejection fraction (EF),[2]; 6 weeks after 27-gauge TAC,60.6%
same,"Cell death, TUNEL positives per cross-section of the whole heart",[2]; 6 weeks after TAC,13.4 positives per cross-section of the whole heart
same,Capillary density,"[2]; after 6 weeks of TAC, Veh- vs SR9009-treated",no difference
same,Intramuscular fibrosis area,"[2]; end of 6 weeks after TAC, Gomori Trichrome",1.1%
same,Ejection fraction (EF),"[3]; 6 weeks after 28-gauge TAC, Group II, SR9009 from 2 weeks after TAC (average EF 44% at start)",43.9%±5%
same,Ejection fraction (EF),"[3]; after cross-over, additional 5 weeks, Group I received SR9009 (EF 29.1% at cross-over)",29.8%±3.7%
same,Mean arterial pressure (MAP),[4],115 mmHg
same,TGβ1-induced inflammatory response,[5],no difference
same,ET-1-induced NPPB (BNP) expression,[6],protective effect
same,Mitochondria morphology by electron microscopy,[7],no difference
same,Mitochondria number estimated by mtDNA to nuclear DNA ratio,[7],no difference
same,Oxidative phosphorylation (OXPHOS) measured by oxygen consumption rate,[7],no difference
